Assay results taken from US20030004207A1, “USE OF COMPOUNDS WHICH ACTIVATE A 5-HT RECEPTOR TO TREAT URINARY INCONTINENCE” (priority 1999, published 2003).
Like-named read-outs stand apart in the source and are kept apart here.

Tests used:
human 5-HT7 receptor = target: T1, human 5-HT7 receptor (Homo sapiens, UniProt P34969); experiment: Radioligand competition binding, human 5-HT7 receptor ([3H]-serotonin); settings: read-out: Affinity at 5-HT7 (Ki ± SEM)
T1 construct: expressed in transfected cells
Experimental: (§1) The binding of a test compound to a receptor of interest was generally evaluated by competitive binding assays using membrane preparations derived from cells which expressed the receptor. First, conditions were determined which allowed measurement of the specific binding of a compound known to bind to the receptor. Then, the binding of the known compound to the receptor in membrane preparations was evaluated in the presence of several different concentrations of the test compound.
(§2) The binding properties of compounds at different human receptors were determined in vitro using cultured cell lines that selectively express the receptor of interest. These cell lines were prepared by transfecting the cloned cDNA or cloned genomic DNA or constructs containing both genomic DNA and cDNA encoding the human receptors as follows:
(§3) Human 5HT1B, 5HT1D, 5HT1E, 5HT1F, and 5HT7 Receptors:
(§4) The cell lysates of LM(tk-) clonal cell line stably transfected with the genes encoding each of these 5-HT receptor-subtypes were prepared as described above. Cell membranes were suspended in 50 mM Tris-HCl buffer (pH 7.4 at 37° C.) containing 10 mM MgCl2, 0.2 mM EDTA, 10 μM pargyline, and 0.1% ascorbate. […] Nonspecific binding was determined in the presence of 10 μM serotonin. […]

human 5-HT1A receptor = target: T2, human 5-HT1A receptor (Homo sapiens, UniProt P08908); experiment: Radioligand competition binding, human 5-HT1A receptor (3H-8-OH-DPAT); settings: read-out: Affinity at 5-HT1A (Ki ± SEM)
T2 construct: expressed in transfected cells; host or cells: COS-7 (transient, pCEXV-3 vector)
T2 sequence (P08908 1-422): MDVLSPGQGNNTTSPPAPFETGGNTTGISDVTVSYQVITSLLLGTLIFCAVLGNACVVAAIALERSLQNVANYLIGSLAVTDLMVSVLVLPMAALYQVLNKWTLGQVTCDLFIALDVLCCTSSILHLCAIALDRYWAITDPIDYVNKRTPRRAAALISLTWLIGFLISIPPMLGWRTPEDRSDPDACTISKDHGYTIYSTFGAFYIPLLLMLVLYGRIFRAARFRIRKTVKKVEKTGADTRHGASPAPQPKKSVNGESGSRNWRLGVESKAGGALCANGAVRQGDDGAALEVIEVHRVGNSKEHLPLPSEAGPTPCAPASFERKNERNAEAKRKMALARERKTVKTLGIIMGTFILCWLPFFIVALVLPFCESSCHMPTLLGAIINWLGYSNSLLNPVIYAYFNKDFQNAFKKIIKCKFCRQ
Experimental: as §1
The binding properties of compounds at different human receptors were determined in vitro using cultured cell lines that selectively express the receptor of interest. […]
(§5) Human 5HT2A Receptor: The coding sequence of the human 5HT2A receptor was obtained from a human brain cortex cDNA library, and cloned into the cloning site of pCEXV-3 eukaryotic expression vector. […] The affinity of compounds at 5-HT2A receptors were determined in equilibrium competition binding assays using [^3H] ketanserin (1 nM). […]
5-HT1A Receptor: The cDNA corresponding to the 5-HT1A receptor open reading frames and variable non-coding 5′- and 3′-regions, was cloned into the eukaryotic expression vector pCEXV-3. […] Radioligand binding assays were performed as described above for the 5-HT2A receptor, except that ^3H-8-OH-DPAT was used as the radioligand and nonspecific binding was determined by the addition of 10 μM mianserin.

human 5-HT1F receptor = target: T3, human 5-HT1F receptor (Homo sapiens, UniProt P30939); experiment: Radioligand competition binding, human 5-HT1F receptor ([3H]-serotonin); settings: read-out: Affinity at 5-HT1F (Ki ± SEM)
T3 construct: expressed in transfected cells
T3 sequence (P30939 1-366): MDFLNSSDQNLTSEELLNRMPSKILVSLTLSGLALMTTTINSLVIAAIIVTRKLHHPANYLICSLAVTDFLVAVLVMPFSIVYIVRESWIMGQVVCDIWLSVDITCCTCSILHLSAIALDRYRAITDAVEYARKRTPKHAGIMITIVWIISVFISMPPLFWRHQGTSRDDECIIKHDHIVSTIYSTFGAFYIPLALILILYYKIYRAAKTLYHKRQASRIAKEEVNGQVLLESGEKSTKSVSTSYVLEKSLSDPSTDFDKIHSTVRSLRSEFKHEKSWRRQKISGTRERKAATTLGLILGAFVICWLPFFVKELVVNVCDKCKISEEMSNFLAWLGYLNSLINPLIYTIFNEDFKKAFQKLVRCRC
Experimental: as §1, §2, §3
(§6) The cell lysates of LM(tk-) clonal cell line stably transfected with the genes encoding each of these 5-HT receptor-subtypes were prepared as described above. Cell membranes were suspended in 50 mM Tris-HCl buffer (pH 7.4 at 37° C.) containing 10 mM MgCl2, 0.2 mM EDTA, 10 μM pargyline, and 0.1% ascorbate. The affinities of compounds were determined in equilibrium competition binding assays by incubation for 30 minutes at 37° C. in the presence of 5 nM [^3H]-serotonin. Nonspecific binding was determined in the presence of 10 μM serotonin. The bound radioligand was separated by filtration through GF/B filters using a cell harvester.

human 5-HT4 receptor = target: T4, human 5-HT4 receptor (Homo sapiens, UniProt Q13639); experiment: Radioligand binding, human 5-HT4 receptor; settings: read-out: Affinity at 5-HT4 (Ki ± SEM)
T4 construct: expressed in transfected cells
Experimental: as §1
(§7) Other 5-HT Receptors: The binding assays using 5-HT4 were preformed according to the procedures described in U.S. Pat. No. 5,766,879, the disclosure of which is hereby incorporated by reference in its entirety into this application. Other serotonin receptor binding assays were preformed according to published methods: 5-HT2B: Kursar et al., 1992; 5-HT2C: Saltzman et al., 1991; 5-HT3: Hoyer and Neijt, 1987; 5-HT5A: Plassat et al., 1992; 5-HT5B: Matthes et al., 1993; 5-HT6: Kohen et al., 1996.

human 5-HT1E receptor = target: T5, human 5-HT1E receptor (Homo sapiens, UniProt P28566); experiment: Radioligand competition binding, human 5-HT1E receptor ([3H]-serotonin); settings: read-out: Affinity at 5-HT1E (Ki ± SEM)
T5 construct: expressed in transfected cells
Experimental: as §1, §2, §3, §6

human 5-HT6 receptor = target: T6, human 5-HT6 receptor (Homo sapiens, UniProt P50406); experiment: Radioligand binding, human 5-HT6 receptor; settings: read-out: Affinity at 5-HT6 (Ki ± SEM)
T6 construct: expressed in transfected cells
Experimental: as §1, §7

human 5-HT2B receptor = target: T7, human 5-HT2B receptor (Homo sapiens, UniProt P41595); experiment: Radioligand binding, human 5-HT2B receptor
T7 construct: expressed in transfected cells
Experimental: as §1, §7

human 5-HT1D receptor = target: T8, human 5-HT1D receptor (Homo sapiens, UniProt P28221); experiment: Radioligand competition binding, human 5-HT1D receptor ([3H]-serotonin); settings: read-out: Affinity at 5-HT1D (Ki ± SEM)
T8 construct: expressed in transfected cells
Experimental: as §1, §2, §3, §4

human 5-HT2C receptor = target: T9, human 5-HT2C receptor (Homo sapiens, UniProt P28335); experiment: Radioligand binding, human 5-HT2C receptor
T9 construct: expressed in transfected cells
T9 sequence (P28335 33-458): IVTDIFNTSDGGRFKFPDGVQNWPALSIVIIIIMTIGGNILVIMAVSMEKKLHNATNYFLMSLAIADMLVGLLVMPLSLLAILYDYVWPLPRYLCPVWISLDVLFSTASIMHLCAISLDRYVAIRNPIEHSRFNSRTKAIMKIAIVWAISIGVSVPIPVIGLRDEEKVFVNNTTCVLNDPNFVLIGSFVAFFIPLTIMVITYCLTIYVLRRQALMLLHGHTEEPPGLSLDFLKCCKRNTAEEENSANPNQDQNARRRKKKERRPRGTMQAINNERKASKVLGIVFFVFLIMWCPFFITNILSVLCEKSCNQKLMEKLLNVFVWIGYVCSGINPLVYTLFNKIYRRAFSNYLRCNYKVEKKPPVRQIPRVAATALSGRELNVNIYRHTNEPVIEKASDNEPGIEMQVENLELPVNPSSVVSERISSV
Experimental: as §1, §7

[1] = test system: distension-induced rhythmic contractions of the rat bladder; experiment: Distension-induced rhythmic contraction (DIRC) model of the micturition reflex; assay type: in vivo; settings: for Effect on distension-induced rhythmic contractions of the rat bladder: urethane-anesthetized female rat, 0.1 mg/kg
Experimental: The effects of compounds on the micturition reflex were assessed in the “distension-induced rhythmic contraction” (DIRC) model in rats, as described in previous publications (e.g. Maggi et al., 1987; Morikawa et al., 1992).
Female Sprague Dawley rats weighing approximately 300 g were anesthetized with subcutaneous urethane (1.2 g/kg). The trachea was cannulated with PE240 tubing to provide a clear airway throughout the experiment. A midline abdominal incision was made and the left and right ureters were isolated. The ureters were ligated distally (to prevent escape of fluids from the bladder) and cannulated proximally with PE10 tubing. The incision was closed using 4-0 silk sutures, leaving the PE10 lines routed to the exterior for the elimination of urine. The bladder was cannulated via the transurethral route using PE50 tubing inserted 2.5 cm beyond the urethral opening. This cannula was secured to the tail using tape and connected to a pressure transducer. To prevent leakage from the bladder, the cannula was tied tightly to the exterior urethral opening using 4-0 silk.
To initiate the micturition reflex, the bladder was first emptied by applying pressure to the lower abdomen, and then filled with normal saline in 100 μl increments (maximum=2 ml) until spontaneous bladder contractions occurred (typically 20-40 mmHg at a rate of one contraction every 1 to 2 minutes. Once a regular rhythm was established, vehicle (saline) or 5-HT1F-selective compounds were administered i.p. to explore their effects on bladder activity. In some instances, a compound known to affect the micturition reflex (e.g. the GABAB receptor agonist APMPA [3-aminopropyl-2-methyl-phosphinic acid]) was given as a “positive control”.

human 5-HT2A receptor = target: T10, human 5-HT2A receptor (Homo sapiens, UniProt P28223); experiment: Radioligand competition binding, human 5-HT2A receptor ([3H] ketanserin)
T10 construct: expressed in transfected cells; host or cells: COS-7 (transient, pCEXV-3 vector)
Experimental: as §1, §2
as §5, with “vector. This construct was transfected into COS-7 cells by the DEAE-dextran method. Cells were harvested after 72 hours and lysed by sonication in 5 mM Tris-HCl, 5 mM EDTA, pH 7.5.” for “vector.”

human 5-HT1B receptor = target: T11, human 5-HT1B receptor (Homo sapiens, UniProt P28222); experiment: Radioligand competition binding, human 5-HT1B receptor ([3H]-serotonin); settings: read-out: Affinity at 5-HT1B (Ki ± SEM)
T11 construct: expressed in transfected cells
Experimental: as §1, §2, §3, §4

[2] = rat, prior administration of antagonist 1.0 mg/kg, i.p.

T5 sequence (P28566 whole entry): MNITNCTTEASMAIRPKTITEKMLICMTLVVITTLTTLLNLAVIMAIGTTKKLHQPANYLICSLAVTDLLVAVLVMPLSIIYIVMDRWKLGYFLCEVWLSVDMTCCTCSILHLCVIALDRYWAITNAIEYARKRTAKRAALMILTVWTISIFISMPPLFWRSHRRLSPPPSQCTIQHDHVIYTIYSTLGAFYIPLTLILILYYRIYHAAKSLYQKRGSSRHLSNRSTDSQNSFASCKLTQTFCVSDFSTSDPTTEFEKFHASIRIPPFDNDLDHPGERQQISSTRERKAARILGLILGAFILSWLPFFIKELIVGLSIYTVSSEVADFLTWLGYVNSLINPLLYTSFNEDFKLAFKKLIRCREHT
T7 sequence (P41595 whole entry): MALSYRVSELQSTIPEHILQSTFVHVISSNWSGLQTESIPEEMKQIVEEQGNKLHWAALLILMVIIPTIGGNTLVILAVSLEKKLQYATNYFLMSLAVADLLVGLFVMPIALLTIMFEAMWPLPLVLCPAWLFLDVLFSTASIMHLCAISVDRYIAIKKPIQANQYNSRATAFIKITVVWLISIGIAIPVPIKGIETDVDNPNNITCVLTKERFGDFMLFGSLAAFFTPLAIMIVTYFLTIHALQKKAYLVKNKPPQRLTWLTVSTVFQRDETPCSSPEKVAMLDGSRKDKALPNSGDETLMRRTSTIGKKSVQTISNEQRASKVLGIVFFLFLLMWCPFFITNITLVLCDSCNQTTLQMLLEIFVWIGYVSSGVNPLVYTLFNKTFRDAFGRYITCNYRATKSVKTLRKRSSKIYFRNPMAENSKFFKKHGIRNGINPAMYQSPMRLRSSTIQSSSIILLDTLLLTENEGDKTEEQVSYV
T11 sequence (P28222 whole entry): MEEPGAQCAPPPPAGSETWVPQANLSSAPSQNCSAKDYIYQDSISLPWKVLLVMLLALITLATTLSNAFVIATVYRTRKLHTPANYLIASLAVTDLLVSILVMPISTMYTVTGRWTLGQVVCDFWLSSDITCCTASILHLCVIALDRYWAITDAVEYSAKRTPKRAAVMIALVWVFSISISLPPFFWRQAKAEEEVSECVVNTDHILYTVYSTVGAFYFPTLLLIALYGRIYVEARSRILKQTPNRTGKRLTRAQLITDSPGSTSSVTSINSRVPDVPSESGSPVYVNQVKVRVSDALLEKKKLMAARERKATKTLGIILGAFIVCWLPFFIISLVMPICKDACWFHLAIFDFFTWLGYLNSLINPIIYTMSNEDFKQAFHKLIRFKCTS
T10 sequence (P28223 whole entry): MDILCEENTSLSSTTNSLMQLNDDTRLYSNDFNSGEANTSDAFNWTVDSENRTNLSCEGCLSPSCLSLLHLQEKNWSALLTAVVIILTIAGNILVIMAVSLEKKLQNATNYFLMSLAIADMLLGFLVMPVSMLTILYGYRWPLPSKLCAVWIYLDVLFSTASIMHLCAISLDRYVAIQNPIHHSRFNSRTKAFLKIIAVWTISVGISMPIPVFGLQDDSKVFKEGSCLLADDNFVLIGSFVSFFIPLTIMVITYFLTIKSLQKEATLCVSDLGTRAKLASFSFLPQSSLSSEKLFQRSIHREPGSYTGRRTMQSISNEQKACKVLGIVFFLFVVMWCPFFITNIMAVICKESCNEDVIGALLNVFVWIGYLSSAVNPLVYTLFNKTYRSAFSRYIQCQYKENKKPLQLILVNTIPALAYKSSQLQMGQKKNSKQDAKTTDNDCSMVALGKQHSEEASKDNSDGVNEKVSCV
T8 sequence (P28221 whole entry): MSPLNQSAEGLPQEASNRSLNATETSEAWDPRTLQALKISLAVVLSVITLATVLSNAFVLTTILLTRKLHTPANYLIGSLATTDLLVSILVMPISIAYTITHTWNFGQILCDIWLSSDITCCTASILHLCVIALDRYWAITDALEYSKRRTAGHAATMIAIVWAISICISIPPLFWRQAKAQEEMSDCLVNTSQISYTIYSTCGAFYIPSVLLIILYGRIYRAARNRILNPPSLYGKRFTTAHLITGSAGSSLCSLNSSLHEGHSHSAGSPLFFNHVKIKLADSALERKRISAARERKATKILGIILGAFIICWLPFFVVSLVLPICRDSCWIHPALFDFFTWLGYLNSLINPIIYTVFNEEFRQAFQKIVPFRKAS
T6 sequence (P50406 whole entry): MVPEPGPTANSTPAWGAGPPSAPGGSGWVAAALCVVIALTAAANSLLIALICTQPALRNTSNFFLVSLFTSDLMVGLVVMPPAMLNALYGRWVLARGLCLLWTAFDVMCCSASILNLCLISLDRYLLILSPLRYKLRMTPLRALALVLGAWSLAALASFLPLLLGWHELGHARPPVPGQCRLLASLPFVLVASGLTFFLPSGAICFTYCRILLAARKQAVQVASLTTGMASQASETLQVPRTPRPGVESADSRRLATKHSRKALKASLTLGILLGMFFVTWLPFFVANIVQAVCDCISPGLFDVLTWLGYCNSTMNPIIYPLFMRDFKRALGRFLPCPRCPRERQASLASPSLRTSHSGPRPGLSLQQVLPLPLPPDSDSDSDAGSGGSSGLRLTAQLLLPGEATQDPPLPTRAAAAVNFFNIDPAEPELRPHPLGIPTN
T1 sequence (P34969 whole entry): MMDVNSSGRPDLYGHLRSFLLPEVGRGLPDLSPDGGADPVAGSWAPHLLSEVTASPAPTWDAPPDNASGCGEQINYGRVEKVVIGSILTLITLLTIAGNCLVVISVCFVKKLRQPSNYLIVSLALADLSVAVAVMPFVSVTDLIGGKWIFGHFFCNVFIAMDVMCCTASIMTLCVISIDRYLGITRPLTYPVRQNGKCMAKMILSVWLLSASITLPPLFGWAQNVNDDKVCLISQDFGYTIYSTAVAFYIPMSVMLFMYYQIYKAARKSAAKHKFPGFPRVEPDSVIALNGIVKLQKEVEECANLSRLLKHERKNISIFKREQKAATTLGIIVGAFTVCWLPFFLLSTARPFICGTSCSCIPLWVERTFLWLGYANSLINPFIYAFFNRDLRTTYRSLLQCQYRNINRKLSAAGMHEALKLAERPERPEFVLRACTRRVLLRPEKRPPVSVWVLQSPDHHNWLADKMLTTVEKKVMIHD
T4 sequence (Q13639 whole entry): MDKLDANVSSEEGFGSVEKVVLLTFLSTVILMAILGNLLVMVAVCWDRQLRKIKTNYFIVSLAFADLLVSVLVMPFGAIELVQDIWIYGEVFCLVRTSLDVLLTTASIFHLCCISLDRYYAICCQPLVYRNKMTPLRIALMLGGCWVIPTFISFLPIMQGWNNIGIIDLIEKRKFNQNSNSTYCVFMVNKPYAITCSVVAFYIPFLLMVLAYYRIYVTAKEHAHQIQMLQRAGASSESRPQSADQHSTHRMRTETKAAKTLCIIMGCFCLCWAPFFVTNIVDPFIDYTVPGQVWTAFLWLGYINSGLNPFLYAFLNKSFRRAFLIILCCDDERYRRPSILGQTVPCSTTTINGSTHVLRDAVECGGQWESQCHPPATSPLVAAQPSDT

Row | Ki (human 5-HT1F receptor) | Ki (human 5-HT1E receptor) | Ki (human 5-HT2B receptor; human 5-HT2B, read-out: Affinity at 5-HT2B (Ki ± SEM)) | Ki (human 5-HT2C receptor; human 5-HT2C, read-out: Affinity at 5-HT2C (Ki ± SEM)) | Ki (human 5-HT2A receptor; human 5-HT2A, read-out: Affinity at 5-HT2A (Ki ± SEM)) | Structure (SMILES) | Ki (human 5-HT7 receptor) | Ki (human 5-HT1A receptor) | Ki (human 5-HT4 receptor) | Ki (human 5-HT6 receptor) | Ki (human 5-HT1D receptor) | Effect on distension-induced rhythmic contractions of the rat bladder ([1]; i.p.) | Ki (human 5-HT1B receptor) | Ki (human 5-HT2B receptor) | Ki (human 5-HT2C receptor) | Blockade of the inhibitory effect of Compound 2 on bladder contractions [1, 2] | Blockade of the inhibitory effect of the GABAB agonist 3-APMPA on bladder contractions [1, 2] | Ki (human 5-HT2A receptor) | Effect on bladder contractions (positive control) ([1]; rat, after Compound 3, dose not given)
1 | 7.11 ± 0.76 nM | 2900 ± 288 nM | 4200 ± 219 nM | 4760 ± 169 nM | > 5000 nM | CN(C)C1CCc2oc3ccc(NC(=O)c4ccncc4)cc3c2C1 (centres unmarked) [Compound 1, N-(N,N-Dimethyl-1,2,3,4-tetrahydro-2-aminodibenzofur-8-yl)-pyridine-4-carboxamide] | > 5000 nM | 367 ± 42 nM | 1870 ± 57 nM | > 5000 nM | 1780 ± 87 nM | inhibited | 751 ± 68 nM |  |  |  |  |  | 
2 | 3.47 ± 0.08 nM | 461 ± 102 nM |  |  |  | CN(C)[C@@H]1CCc2c([nH]c3ccc(NC(=O)c4ccc(F)cc4)cc23)C1 [Compound 2, (R)-(+)-6-(4-fluorobenzoyl)amino-2-(dimethyl)amino-1,2,3,4-tetrahydro-9H-carbazole] |  |  |  |  |  | inhibited |  |  |  |  |  |  | 
3 |  |  |  |  |  | CP(=O)(O)CCCN [Compound 3-APMPA, 3-aminopropyl-methyl-phosphinic acid, reference compound] |  |  |  |  |  |  |  |  |  |  |  |  | inhibitory effect

Row | Structure (SMILES) | Ki (human 5-HT1F receptor) | Ki (human 5-HT1E receptor) | Ki (human 5-HT2B receptor; human 5-HT2B, read-out: Affinity at 5-HT2B (Ki ± SEM)) | Ki (human 5-HT2C receptor; human 5-HT2C, read-out: Affinity at 5-HT2C (Ki ± SEM)) | Ki (human 5-HT2A receptor; human 5-HT2A, read-out: Affinity at 5-HT2A (Ki ± SEM)) | Ki (human 5-HT7 receptor) | Ki (human 5-HT1A receptor) | Ki (human 5-HT4 receptor) | Ki (human 5-HT6 receptor) | Ki (human 5-HT1D receptor) | Effect on distension-induced rhythmic contractions of the rat bladder ([1]; i.p.) | Ki (human 5-HT1B receptor) | Ki (human 5-HT2B receptor) | Ki (human 5-HT2C receptor) | Blockade of the inhibitory effect of Compound 2 on bladder contractions [1, 2] | Blockade of the inhibitory effect of the GABAB agonist 3-APMPA on bladder contractions [1, 2] | Ki (human 5-HT2A receptor) | Effect on bladder contractions (positive control) ([1]; rat, after Compound 3, dose not given)
4 | O[C@H](COc1ccc2ccccc2c1)CN1CCC(O)(c2cnc3ccccc3c2)CC1 [Compound 3, 1-((2S)-hydroxy-3-(naphth-2-yloxy)prop-1-yl)-4-hydroxy-4-(quinolin-3-yl)piperidine] | 4.31 ± 0.53 nM | 3670 ± 505 nM |  |  |  | 4410 ± 514 nM | 591 ± 143 nM | 405 ± 122 nM | 4220 ± 399 nM | 1530 ± 400 nM |  | 1280 ± 144 nM | 496 ± 36 nM | 1370 ± 341 nM | complete blockade | failed to block | 377 ± 94 nM | 
